PubChem BioAssay (NCI)
Values joined by “and” are separate entries in the source; they are usually repeats but may differ in a detail not shown here. Identical values can stand only once.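 Exposure lasted 48 hours, with cells grown in 96-well plates and compounds tested at five concentrations. GI50 marks 50% less growth. TGI denotes the concentration required for complete inhibition of growth.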

What was measured:
Assay in all cases: NCI tumour cell line growth inhibition, 48 h
HS 578T breast = system: HS 578T breast
M14 melanoma = system: M14 melanoma
K-562 leukemia = system: K-562 leukemia
SR leukemia = system: SR leukemia
MCF7 breast = system: MCF7 breast
M19-MEL melanoma = system: M19-MEL melanoma
KM20L2 colon = system: KM20L2 colon
DLD-1 colon = system: DLD-1 colon
XF 498 CNS = system: XF 498 CNS
DMS 273 small cell lung = system: DMS 273 small cell lung
786-0 renal = system: 786-0 renal
HOP-18 NSCLC = system: HOP-18 NSCLC
RXF-631 renal = system: RXF-631 renal
SN12K1 renal = system: SN12K1 renal
P388/ADR leukemia = system: P388/ADR leukemia

Structure (SMILES) | TGI (HS 578T breast) | TGI (M14 melanoma) | TGI (K-562 leukemia) | TGI (SR leukemia) | TGI (MCF7 breast) | TGI (M19-MEL melanoma) | TGI (KM20L2 colon) | TGI (DLD-1 colon) | TGI (XF 498 CNS) | TGI (DMS 273 small cell lung) | TGI (HOP-18 NSCLC) | other results
C=CCn1c(=O)c(Br)nn(CCOCP(=O)(OCC)OCC)c1=O | > 100 µM | > 100 µM | > 100 µM | > 100 µM | > 100 µM |  |  |  |  |  |  | 
Nc1nc(SCCNC(=O)CCc2ccc(O)c(I)c2)nc2c1ncn2C1OC(CO)C(O)C1O (centres undefined) |  | > 100 µM | > 100 µM | > 100 µM |  | > 100 µM | > 100 µM | > 100 µM | > 100 µM | > 100 µM |  | 
CC(=O)OCC1=CC2OC(=O)C3=COC(OC4OC(CO)C(O)C(O)C4O)C1C32 (centres undefined) | > 100 µM | > 100 µM |  | > 100 µM | > 100 µM |  |  |  |  |  |  | TGI (786-0 renal): > 100 µM
N#Cc1ccc([N+](=O)[O-])cc1NC(N)=S |  | > 100 µM |  | > 100 µM |  | > 100 µM | > 100 µM |  | > 100 µM | > 100 µM | > 100 µM | TGI (RXF-631 renal): > 100 µM
CC[C@@]1(O)C[C@H](OC2CC(N(C)C)C(OC3CC(O)C(OC4CCC(=O)C(C)O4)C(C)O3)C(C)O2)c2c(cc3c(c2O)C(=O)c2c(O)cccc2C3=O)C1C(=O)OC (some centres undefined) | 0.618 µM | 0.237 µM and 0.769 µM |  | 1.23 µM |  | 0.799 µM | 4.64 µM | 5.46 µM | 0.294 µM |  | 1.85 µM | GI50 (SR leukemia): 0.00493 µM; GI50 (XF 498 CNS): 0.0025 µM
CC(C)CNCCc1ccccn1 | > 100 µM | > 100 µM |  |  | > 100 µM |  |  |  |  |  |  | TGI (786-0 renal): > 100 µM
O=c1oc2cc(O)ccc2c2oc3cc(O)ccc3c12 |  |  | > 125 µM |  | 122 µM | > 125 µM | 123 µM | > 125 µM | > 19.8 µM | > 121 µM | > 125 µM | TGI (SN12K1 renal): > 112 µM; TGI (P388/ADR leukemia): > 125 µM
CC1=C(SCCO)C(=O)c2ccccc2C1=O | 40.4 µM | 27.6 µM | > 100 µM | > 100 µM | 12.6 µM |  |  |  |  |  |  | 
CC(C)C1=CC2=CC[C@@H]3[C@](C)(CCC[C@@]3(C)C(=O)O)[C@H]2CC1 |  | > 100 µM | > 100 µM | > 100 µM |  | > 100 µM | > 100 µM | > 100 µM | > 100 µM | > 100 µM | > 100 µM | TGI (RXF-631 renal): > 100 µM
COc1cc2c3c(n(CCCn4cncn4)c(=O)c2cc1OC)-c1cc2c(cc1C3=O)OCO2 | > 100 µM | > 100 µM | 28.1 µM |  | > 100 µM |  |  |  |  |  |  | GI50 (HS 578T breast): > 73.6 µM; GI50 (M14 melanoma): < 0.01 µM; GI50 (K-562 leukemia): 1.49 µM; GI50 (SR leukemia): < 0.01 µM; TGI (786-0 renal): > 49.3 µM
C1=CC=C2NCCc3cccc(c3)CCNC3=CC=CC=CC3=NCCCCCCN=C2C=C1 |  | 29.8 µM | > 100 µM | 82.4 µM |  | 30.3 µM | 24.8 µM | > 100 µM |  | 21.9 µM |  | TGI (RXF-631 renal): 28 µM
CCCCC(=O)c1c(O)ccc2c(C)cc(=O)oc12 | > 100 µM | > 100 µM | > 100 µM | > 100 µM | > 100 µM |  |  |  |  |  |  | TGI (786-0 renal): > 100 µM
CC(=O)OCCCCN1C(=O)CSc2ccccc21 | > 100 µM |  |  | > 100 µM | > 100 µM |  |  |  |  |  |  | 
O=C1CCCCN1 |  |  | > 1120 µM |  | > 1120 µM | > 1120 µM | > 1120 µM | > 1120 µM | > 112 µM | > 1120 µM | > 1120 µM | TGI (SN12K1 renal): > 1120 µM; TGI (P388/ADR leukemia): > 1120 µM
O=Cc1ccccc1CCn1c(=O)c2cc3c(=O)n(CCc4ccccc4C=O)c(=O)c3cc2c1=O |  |  | > 100 µM |  |  |  |  | > 100 µM |  | > 100 µM |  | 
